Reference: a melting point compilation (Tetko et al.; mined from patent text by program, amines drawn as free bases though some values may be those of a salt)
Residues, ends and D or L forms follow the SMILES beside them. *: point of attachment. Boc = CC(C)(C)OC(=O)*

melting point	SMILES
99.5 to 100 °C	O=C(O)CSCc1cc2c(cc1Cc1ccccc1)OCO2
75 to 77 °C	Clc1nc(-c2ccccc2)cc2ccccc12
171 to 172 °C	c1ccc(-c2cc3ccccc3s2)cc1
206 to 212 °C	COC1=CC(=O)c2c(O)c(CO)c(CC(C)O)c(O)c2C1=O (stereo unspecified)
178 to 182 °C	CC(C)c1ccc2c(c1)C(=O)c1ccc(C(=O)O)cc1CC2
138 to 140 °C	CC(=O)OC1Oc2ccc(C#N)cc2C1(C)C (stereo unspecified)
160 to 162 °C	O=C(NCCN1CCN(C(c2ccccc2)c2ccncc2)CC1)C1CSC(c2cccnc2)N1 (stereo unspecified)
245 to 246 °C	Cc1cccc(C(C)(C)C)c1NC(=O)NC1(c2cccs2)CCCCC1
252 to 281 °C	CSCCC(NC(=O)C(CC(C)C)NC(=O)CNC(=O)C(NC(=O)C(Cc1ccccc1)NC(=O)C(C)NC(=O)OC(C)(C)C)C(C)C)C(=O)O (stereo unspecified) (Boc-AFVGLM-OH; configuration not given here)
121 to 124 °C	CC1(C)CN2C(=NS(=O)C2=Nc2ccc(Cl)cc2)S1 (stereo unspecified)
257 to 260 °C	CCOC(=O)c1nnc2ccc(N3C(=O)C=CC3=O)cc2c1O
238 to 239 °C	CS(=O)c1ccc(C(=O)O)cc1[N+](=O)[O-] (stereo unspecified)
115 to 116 °C	CCCNc1nc(C#N)c(C#N)nc1-c1ccc(C)cc1
243 to 245 °C	COc1ccc(C2Sc3ccccc3N(CC(N)=O)C(=O)C2NC(=O)c2ccc3ccccc3c2)cc1 (stereo unspecified)
142 °C	CCOC(=O)C1=C(N)N=C(N)C(C)(C(=O)OCC)C1c1cccc([N+](=O)[O-])c1 (stereo unspecified)
159 to 161 °C	NC(=O)C1CCc2c(C(=O)c3ccc(Cl)cc3)cccc21 (stereo unspecified)
180 to 182 °C	Cc1nc(-n2ccccc2=O)sc1C(=O)NCc1ccccc1
221 to 222 °C	COC(=O)c1[nH]c2c(C)ccc(C)c2c1NC(C)=O
138 to 140 °C	Cc1ccc(-c2cn(C)c(-c3ccc(C)s3)n2)s1
189 to 190 °C	Cc1nn(-c2ccccc2)c(=O)c2c1c1c(Br)cccc1n2C
58 to 60 °C	O=Cc1ccc2c(ccc3ccccc32)c1
188 to 190 °C	CC1N=C(NN2CCCCC2)NN=C1c1ccccc1 (stereo unspecified)
185 to 186 °C	O=C(O)c1cccc(-c2ccc3c(c2)N(Cc2cccc(Cl)c2Cl)CC3)c1
102 to 103 °C	CC1(C)OC(C(F)(F)F)Nc2ccc(-c3cc(F)cc(C#N)c3)cc21 (stereo unspecified)
342 °C	CC1(C)N=C(NC#N)N=C(NC(=O)c2nc(Cl)c(N)nc2N)N1

melting point	SMILES
90 to 91 °C	N#Cc1ccc(-c2n[nH]cc2C(F)(F)F)cc1SCC(F)(F)F
174 °C	O=c1c2cnc3ccc(Cl)cc3c2on1-c1ccccc1
182 to 185 °C	COc1cc(C)nc(N(C)C(=O)NS(=O)(=O)c2cc(Cl)ccc2Cl)n1
129 to 131 °C	O=C(C1CCN(c2ccncn2)C1)N1CCNCC1 (stereo unspecified)
163 to 164 °C	FC(F)(F)COc1ccc(-c2nc3n(c2-c2ccc(OCC(F)(F)F)cc2)CCS3)cc1
218 to 220 °C	CC(C)(C)OC(=O)N1CCN(Cc2ccc3c(c2)-c2[nH]nc(-c4ccsc4)c2C3)CC1
193 to 196 °C	Fc1ccccc1-c1cnc2nncn2n1
132 to 133 °C	CCOC1(OCC)CCC2(CC1)c1cc(O)c(O)cc1CC(C(=O)O)N2C(=O)OCc1ccccc1 (stereo unspecified)
146 to 149 °C	COc1cc(OC)nc(NC(=O)NS(=O)(=O)c2nccn2-c2ccccn2)n1
80 to 82 °C	CCOC(=O)c1cc2n(c1)CN(C(=O)OCC)c1ccccc1-2
195 to 197 °C	O=[N+]([O-])c1cc(Sc2ccc(Cl)cc2)[nH]c1-c1ccc(Cl)cc1
255 °C	CCOc1ccc2c(c1)n(C1CCOCC1)c(=O)n2S(=O)(=O)c1ccc(C(=O)O)cc1OC
151 to 153 °C	CCC(C)(C)N=C(NC#N)Nc1cc(Cl)cc(Cl)c1
176 to 177 °C	COc1ccc(C2=NNC(=O)CC2c2ccccc2)cc1 (stereo unspecified)
158 to 160 °C	COc1ccc(CCNC(=O)Nc2ccccc2CCc2cc(C(C)(C)C)c(O)c(C(C)(C)C)c2)cc1OC
61 to 65 °C	O=C(O)[C@@H]1O[C@@H](c2ccccc2)N(NS(=O)(=O)c2ccc([N+](=O)[O-])cc2)[C@H]1c1ccccc1
229 to 230 °C	CCC(=O)Nc1cccc(-c2ccc(=O)[nH]n2)c1
211 to 214 °C	COc1ccc(-c2csc(Nc3ccccn3)n2)cc1OC
140 to 142 °C	CN1C(=O)C(=O)c2cnccc21
124 to 125 °C	Clc1ccc(C2(Cn3cncn3)CCC2)cc1
208 to 210 °C	O=c1[nH]nc(-c2ccc(Cl)cc2)n1Cc1ccccc1
198 to 199 °C	CCc1noc(-c2cn(-c3c[nH]c4ccccc34)cn2)n1
84 to 85 °C	O=C(OCc1ccccc1)C1C(Sc2ccccc2)CC2CC(=O)N21 (stereo unspecified)
271 to 273 °C	O=c1[nH][nH]c(=O)n1-c1c(F)cc(Cl)c2c1CCCO2
74.5 to 75.5 °C	Cn1nc(Cl)c(C(=O)C(Br)c2ccccc2)c1Cl (stereo unspecified)

melting point	SMILES
173 to 174 °C	N#CNC(=Nc1cccnc1)NC1CCN(Cc2ccccc2)CC1
164 to 166 °C	Nc1cccc2c(-c3ccccc3)c([N+](=O)[O-])oc12
143 to 145 °C	CCCc1nnc(N2N=C(c3ccc([N+](=O)[O-])c(C)c3)c3cc4c(cc3C[C@H]2C)OCO4)s1
179 to 180 °C	CC(=O)Nc1cnc(-c2ccccc2)nc1Cl
90 to 92 °C	O=C(Nc1ccc(OCCN2CCOCC2)c2ccccc12)c1cccc(N2CCOCC2)c1
142 to 144 °C	O=S(=O)(c1ccccc1)N1CCC(C(O)(c2ccc(F)cc2)c2ccc(F)cc2)CC1
120 °C	O=C(Nc1nccs1)c1cccc(C[C@@H]2COc3ccc(OCc4nc5cc(F)ccc5s4)cc3[C@@H]2O)c1 (relative stereo)
171 to 172 °C	COC(=O)/C=C/n1cnc2ccc(Cl)cc2c1=O
121 to 123 °C	Nc1ncccc1OCc1ccc(Cl)cc1
150 °C	CC1(C)CS(=O)(=O)CC(C)(C)N1Br
233 to 235 °C	CCn1cc(Br)ccc1=NC=C(S(=O)(=O)c1ccccc1)S(=O)(=O)c1ccccc1
213 to 215 °C	Oc1ccc(O)c2c1CCCC2
116 to 118 °C	C[C@H](NC(=O)c1c(CN2CCNCC2)c(-c2ccccc2)nc2ccccc12)C1CCCCC1
179 to 181 °C	COc1ccc(S(=O)(=O)N2CCc3cccc(-c4cccnc4)c32)cc1
174 °C	O=[N+]([O-])c1cnc2c(F)c(Cl)c(F)cc2c1
154 °C	N#Cc1ccc(C2NC(=O)NC2=O)c(N2CCCC2)c1 (stereo unspecified)
145 °C	Cn1c(=O)c(C(=O)NC2CCCCC2)c(O)c2ccccc21
66 to 67 °C	Cc1ccc(OCc2ccccc2)cc1NCc1ccccc1
150 °C	CN(C)CCC1(CO)c2ccccc2N(C)c2ccccc21
152 °C	COCCN(CCOC)C1CCN(c2ccc(NC(=O)c3cnn(-c4ccc(Cl)cc4)c3C)cc2C#N)CC1
225 to 230 °C	Fc1cccc(F)c1-c1ncc(-c2ccc(-c3ccc(OC(F)(F)F)cc3)cc2)nn1
237 to 240 °C	COc1nc(Nc2ccc(F)cc2F)c(C(=O)O)cc1F
150 to 151 °C	O=C1OC(CCI)C(O)=C1O (stereo unspecified)
185 to 187 °C	CCCCC(=O)NNC(=O)c1ccc([N+](=O)[O-])cc1
210 °C	Cc1cc(-c2ccc(Cl)c(Cl)c2)nc(-n2cnc(-c3cccc(S(N)(=O)=O)c3)c2)n1

melting point	SMILES
150 to 152 °C	CC(C)(C)[Si](C)(C)OC1CCCc2cnc3cc(OCc4ccccc4[N+](=O)[O-])ccc3c21 (stereo unspecified)
124 °C	CC#CCOc1ccc(S(=O)(=O)C2(C(=O)NO)CCCN(Cc3ccc(Cl)cc3)C2)cc1 (stereo unspecified)
145 °C	CSC(c1ccc(Cl)cc1)C(C(=O)C(C)(C)C)n1cncn1 (stereo unspecified)
132 to 133 °C	Cc1ccccc1C(Oc1cc(OCc2ccncc2)ccc1C#N)c1nnn[nH]1 (racemic)
170 to 171 °C	COc1ccc(C(=O)c2ccc(CC(=O)O)n2C)cc1
163 to 166 °C	OCCOc1ccc(Nc2cc(Nc3ccccc3F)ncn2)cc1
160 to 161 °C	CC(=O)OCc1cc2c(c3c1CCC3)C(=O)c1ccccc1C2=O
90 to 92 °C	COC(=O)c1c(C)sc2cc(CCn3ccnc3)ccc12
54.8 °C	COC(=O)C(C)Oc1ccc(C(C)=O)cc1 (stereo unspecified)
261 °C	CNC[C@H]1CC[C@H](C(=O)O)CC1
270 °C	CN=C(NCCCc1nc2cc(C3=NNC(=O)CC3C)ccc2[nH]1)NC(=O)c1ccccc1 (stereo unspecified)
195 to 196 °C	Cc1nc(N2CCN(Cc3ccccc3)CC2)ncc1C(N)=O
178 °C	CCCOc1ccccc1-c1nc2nc(N(C)C)ncc2c(=O)[nH]1
146 to 148 °C	Cn1c(C(F)(F)F)cc(=O)n(-c2nc(Cl)c(C#N)cc2F)c1=O
108 to 109 °C	N#Cc1cc(Br)cc(CO)c1
125 to 128 °C	COc1ccc(Cc2cc(-c3ccc(Cl)cc3)sc2Cc2ccc(OC)cc2)cc1
221 °C	O=c1c(Cl)c(Cl)cnn1-c1ccc([N+](=O)[O-])cc1
117 to 118 °C	Cc1ccc(S(=O)(=O)OCC2COc3ccc([N+](=O)[O-])c(C=CC#N)c3O2)cc1 (stereo unspecified)
> 200 °C	O=c1[nH]c2c(n(O)c1=O)C1=C(CCC(n3ccc(CN4CCN(C(c5ccccc5)c5ccccc5)CC4)c3)=C1)CC2
273 °C	Cc1cc2c(C)cc(=O)oc2cc1O
264 to 266 °C	O=c1[nH]c(-c2ccccc2)ncc1[N+](=O)[O-]
80 to 81 °C	CCOC(=O)CCn1c(=O)c2ccccc2n(CCCCl)c1=O
167 °C	O=C(Nc1cccc2c1C(=O)N(CCC(=O)N1CCN(c3ccncc3)CC1)C2=O)c1ccc(Cl)s1
52 to 53 °C	CC(C)CC(C(=O)O)c1cc(Cl)c(-c2ccc(Cl)cc2)c(OCC2CC2)c1 (stereo unspecified)

SMILES	melting point
Cc1ccc(C2(Br)C(=O)NC(=O)NC2=O)cc1	210 to 213 °C
Ic1ccc(OCCCCCCCN2CC2)nc1	41 to 45 °C
